Our source for the IC50 values is BindingDB's records for patent US10213407 (The Procter & Gamble, 2019).

The target in this test is T1, Carnitine monooxygenase oxygenase/reductase subunit (Escherichia coli (strain K12), UniProt P0ABR7+P76254).
T1 sequence (P0ABR7 whole entry): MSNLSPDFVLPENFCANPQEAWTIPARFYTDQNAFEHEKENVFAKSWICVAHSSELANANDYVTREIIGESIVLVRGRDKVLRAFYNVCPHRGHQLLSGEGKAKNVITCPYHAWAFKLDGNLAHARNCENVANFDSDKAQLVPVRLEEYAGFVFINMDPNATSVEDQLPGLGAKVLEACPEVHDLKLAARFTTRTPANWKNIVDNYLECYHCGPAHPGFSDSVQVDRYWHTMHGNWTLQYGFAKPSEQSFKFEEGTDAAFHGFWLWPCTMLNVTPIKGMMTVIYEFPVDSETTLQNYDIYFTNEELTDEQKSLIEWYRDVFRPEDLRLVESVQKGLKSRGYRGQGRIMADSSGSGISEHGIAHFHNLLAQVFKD
T1 sequence (P76254 whole entry): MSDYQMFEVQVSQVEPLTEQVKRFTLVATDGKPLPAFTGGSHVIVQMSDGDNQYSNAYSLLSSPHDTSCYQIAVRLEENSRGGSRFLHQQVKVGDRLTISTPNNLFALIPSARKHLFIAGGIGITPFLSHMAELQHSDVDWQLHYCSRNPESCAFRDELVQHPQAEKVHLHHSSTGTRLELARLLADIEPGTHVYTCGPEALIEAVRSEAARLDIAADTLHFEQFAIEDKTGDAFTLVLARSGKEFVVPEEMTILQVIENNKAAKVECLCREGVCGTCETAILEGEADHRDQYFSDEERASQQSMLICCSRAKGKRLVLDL
The test can be described thus: BCA Protein Assay. From the text: Escherichia coli BL21*DE3 pET30a-Ec yeaWX #1 (Ec YeaWX) strain was generated as described below. The contiguous Escherichia coli coding sequence yeaW (equivalent to uniprot ID P0ABR7.1 (YeaW) (SEQ ID NO: 2)) and yeaX (equivalent to uniprot ID P76254.1 (YeaX) (SEQ ID NO: 3)) were PCR amplified from Escherichia coli strain K-12 substr. BW25113 genomic DNA. PCR primers (YeaW_Nde I_fwd2-SEQ ID NO: 4; YeaX_rev2-SEQ ID NO: 5) were designed to create a 5′ NdeI restriction site including the ATG start codon of yeaW and create a PstI restriction site just 3′ of the yeaX TAG stop codon.The bacteria were grown aerobically in 50 mL LB broth (Difco #244620; 10 g/L Tryptone, 5 g/L yeast extract, 10 g/L NaCl, 50 μg/mL kanamycin), in a 500 mL Erlenmeyer flask. The cultures were inoculated from glycerol stock of BL21*DE3 pET30a-Ec yeaWX #1 strain. Strains were cultured all day at 37° C. with 250 rpm shaking. Two 300 mL Minimal M9 Medium (6 g/L Na2HPO4, 3 g/L KH2PO4, 0.5 g/L NaCl, 1 g/L NH4Cl, 0.1 mM CaCl2, 1 mM MgSO4, 0.2% Dextrose, 1 mg/L Thiamine, 50 μg/mL kanamycin), in 1 L Erlenmeyer flasks, were inoculated with 5 mL of the LB broth day culture and cultured overnight at 37° C. with 250 rpm shaking. The overnight cultures were used to inoculate twelve 1 L cultures of Minimal M9 media in 2.8 L fluted Erlenmeyer flasks to an OD 600 nm of 0.05 (typically approximately 28 mLs), which were grown at 37° C. with 250 rpm shaking until an OD600 of approximately 0.4 was reached. Expression of YeaWX was induced with 1 mM IPTG and the induced cultures were further grown overnight at 37° C. with 250 rpm shaking. The biomass was pelleted by centrifugation at 6000×g for 12 minutes at 4° C. The cell pellet was suspended in 240 mL of ice-cold 1× Phosphate Buffered Saline (Ca2+ and Mg2+ free). […] Glycerol was added to the centrifuged lysate supernatant at a final concentration of 15% A protein concentration of the centrifuged lysate supernatant was determined by a BCA Protein Assay Kit (Pierce #23225), typically in the 2.5 to 4.5 mg/ml range. […]

One may read the IC50 as the concentration needed to halve the response being measured. A high value points to weaker potency. Take `CCOC(=O)C[N+](CC)(CC)CCCN=C=S` [US10213407, ID 3]: the IC50 stood at 220 µM.

`CCOC(=O)C[N+](C)(C)CCN=C=S` [US10213407, ID 4] registered an IC50 of 300 µM.

Compound `C[N+](C)(CC#N)CCN=C=S` [US10213407, ID 8] yielded an IC50 of 210 µM.
